Measured values from patent US11987582B2, “Maleate salts of triazolopyrazine derivatives, compositions, methods of use, and processes of manufacturing the same” (ABION Inc, priority 2021, dated 2024).
Like-named read-outs stand apart in the source and are kept apart here.

Assays:
[1] = PK parameters in plasma after single administration; format: in vivo, Wistar rats; conditions: for AUC(0-inf) / AUC(0-t) / Cmax / Tmax: Wistar, rat, plasma
[2] = system: lung cancer cell line EBC-1; assay: cancer cell proliferation inhibitory experiment (SRB); format: cell-based, human; conditions: EBC-1 cell line
Protocol: The following exemplary experimental protocol was performed to test the activity of the maleate salt compounds described herein.
An RPMI 1640 cell culture medium, fetal bovine serum (FBS) and trypsin were purchased from GIBCO Co., Ltd. (Grand Island, N.Y.), and sodium hydrogencarbonate, amphotericin B and gentamycin were used as signamic medical products. In addition, reagents such as sulforhodamine (SRB) B, Trisma Base, and trichloroacetic acid (TCA), which were reagents used in a cytotoxicity measurement experiment, were purchased from Sigma Chemical Co., Ltd. For MTS analysis, a Celltiter 96 Aqueous Non-Radioactive Cell Proliferation Assay product was purchased from Promega Co., Ltd. Further, a T-25 culture container used for cell culture, a 96-well plate and other disposable glass used for cell culture were obtained from Folkon (Lincoln Park, N.J.) products.
A drug used in the experiment was diluted as an experimental medium to a desired concentration in the test, and the final dimethylsulfoxide concentration was 0.5% or less.
Cancer cell lines used in the experiment were human-derived cancer cell lines, and a lung cancer cell line EBC-1. RPMI 1640 medium with 10% fetal bovine serum (FBS) was used and cultured in an incubator of 37° C. and 5% CO2 and subcultured once by 3 to 4 days.
Specifically, after the culture with the compound of the present disclosure was terminated, the culture solution was removed, and a cold TCA solution added to each well. The cells were left at 4° C. for 1 hour to be fixed. The TCA solution was removed, and the cells were dried at room temperature, incubated with a solution obtained by dissolving 0.4% SRB in a 1% acetic acid solution, left at room temperature for 30 minutes, and then stained. Extra SRB which was not bound to the cells was washed with a 1% acetic acid solution, and the SRB was eluted by adding a […] tris buffer solution (trisma base; unbuffered) of pH 10.3 to 10.5 to the stained cells.

[3] = long-term stability study, chemical purity by HPLC; format: physicochemical; conditions: up to 15 months, in words
Protocol: The physical and chemical stability study was performed on the compounds of Chemical Formula 2 and Chemical Formula 1 (for reference purposes). The long-term stability study was conducted at defined temperatures and relative humidity levels (25° C./60% relative humidity (RH) and 40° C./75% RH). At regular intervals, a solid sample was analyzed by XRPD, TGMS and HPLC.
The results of the chemical purity determination for the compounds of Chemical Formula 1 and Chemical Formula 2 after 1-, 3- and 15-month exposure to 25° C./60% RH and 40° C./75% RH is presented in FIGS. 4 and 5.

[4] = thermodynamic solubility in formulation vehicles (phosphate buffer pH 7.4 with excipients); format: physicochemical; conditions: thermodynamic from solid
Protocol: In view of developing a formulation suitable for parenteral administration, the quantitative solubility of Chemical Formula land the Chemical Formula 2 were determined in phosphate buffer pH 7.4, supplemented with solubility-enhancing excipients. The target concentration is 1-1.3 mg/mL.
Based on the qualitative solubility result determined for the PBS formulation vehicle containing Transcutol (Gattefossé, France) and TPGS (tocopherol polyethylene glycol succinate), the quantitative solubility of the compound of Chemical Formula 1 and the compound of Chemical Formula 2 was determined in those vehicles to assess the maximum solubility in those vehicles. The thermodynamic solubility was then determined in PBS buffer containing Transcutol (50% and 10%) and TPGS (20% and 10%) and also in the formulation vehicles containing PEG 400 (50%, with and without presence of 2% DMSO). Suspensions of the compound of Chemical Formula 1 and the compound of Chemical Formula 2 were prepared in the selected vehicles with a compound of Chemical Formula 1 concentration of about 3.5-5 mg/mL. After incubation for 24 hours at room temperature, the solids and liquid phases were separated. The concentration of API in solution was determined by HPLC analysis. The results can be found in FIG. 6.

[5] = PK parameters after bid (twice a day) administration; format: in vivo; conditions: for Cmax1 / Tmax1: after first daily dosing; for Cmax2 / Tmax2: after second daily dosing; for AUC / AUC(0-t): in vivo; for AUC: read-out: AUC(12-24 h)
From the text: FIG. 10 and Table 4 show the PK properties of the compound of Chemical Formula 2 administered twice a day (bid).
FIG. 11 and Table 5 show the PK properties of the compound of Chemical Formula 1 administered twice per day.

- AUClast/Dose ([1]; 5 mg/kg IV): 1410 kg·nM·h/mg
- AUC∞/Dose ([1]; 5 mg/kg IV): 1440 kg·nM·h/mg
- Cl ([1]; 5 mg/kg IV): 0.000705 mg/h/nM/kg
- Vss ([1]; 5 mg/kg IV): 0.00347 mg/nM/kg
- Vz ([1]; 5 mg/kg IV): 0.00471 mg/nM/kg
- AUClast/Dose ([1]; 5 mg/kg PO): 551 kg·nM·h/mg
- AUC∞/Dose ([1]; 5 mg/kg PO): 562 kg·nM·h/mg
- F ([1]; 5 mg/kg PO): 39.0%
- AUClast/Dose ([1]; 20 mg/kg PO): 488 kg·nM·h/mg
- AUC∞/Dose ([1]; 20 mg/kg PO): 504 kg·nM·h/mg
- F ([1]; 20 mg/kg PO): 35.0%
- AUC(0-inf) ([1]; 5 mg/kg IV): 7.2 µM·h
- AUC(0-t) ([1]; 5 mg/kg IV): 7.06 µM·h
- AUC(0-inf) ([1]; 5 mg/kg PO): 2.81 µM·h
- AUC(0-t) ([1]; 5 mg/kg PO): 2.75 µM·h
- Cmax ([1]; 5 mg/kg PO): 343 nM
- Tmax ([1]; 5 mg/kg PO): 4 h
- AUC(0-inf) ([1]; 20 mg/kg PO): 10.1 µM·h
- AUC(0-t) ([1]; 20 mg/kg PO): 9.76 µM·h
- Cmax ([1]; 20 mg/kg PO): 1080 nM
- Tmax ([1]; 20 mg/kg PO): 4 h
- GI50 [2]: 8.17 nM
- chemical degradation ([3]; 25° C./60% RH): partial chemical degradation
- chemical degradation ([3]; 40° C./75% RH): more degradation
- solubility at 24 h ([4]; PBS formulation vehicle with 10% TPGS, pH 7.4, aqueous with cosolvent or surfactant or cyclodextrin, PBS vehicle containing 10% TPGS, 24 hours at room temperature): ≥ 1000 µg/mL
- solubility at 24 h ([4]; PBS formulation vehicle with 10% Transcutol, pH 7.4, aqueous with cosolvent or surfactant or cyclodextrin, PBS vehicle with only 10% Transcutol, 24 hours at room temperature): ~100 µg/mL
- solubility at 24 h ([4]; PBS formulation vehicle with 20% TPGS, pH 7.4, aqueous with cosolvent or surfactant or cyclodextrin, PBS vehicle containing 20% TPGS, 24 hours at room temperature): ≥ 1000 µg/mL
- solubility at 24 h ([4]; PBS formulation vehicle with 50% Transcutol, pH 7.4, aqueous with cosolvent or surfactant or cyclodextrin, PBS vehicle containing 50% Transcutol, 24 hours at room temperature): ≥ 1000 µg/mL
- solubility at 24 h ([4]; formulation vehicles containing PEG 400, pH 7.4, aqueous with cosolvent or surfactant or cyclodextrin, vehicles containing PEG 400, 24 hours at room temperature): ~300 µg/mL
- AUC(0-12 h)/Dose ([5]; 5 mg/kg IV (10 mg/kg/day)): 1070 kg·nM·h/mg
- AUC(12-24 h)/Dose ([5]; 5 mg/kg IV (10 mg/kg/day)): 1480 kg·nM·h/mg
- AUClast/Dose ([5]; 5 mg/kg IV (10 mg/kg/day)): 1410 kg·nM·h/mg
- Cl ([5]; 5 mg/kg IV (10 mg/kg/day)): 0.000733 mg/h/nM/kg
- Vss ([5]; 5 mg/kg IV (10 mg/kg/day)): 0.0076 mg/nM/kg
- Vz ([5]; 5 mg/kg IV (10 mg/kg/day)): 0.00265 mg/nM/kg
- AUC(0-12 h)/Dose ([5]; 5 mg/kg PO (10 mg/kg/day)): 487 kg·nM·h/mg
- AUC(12-24 h)/Dose ([5]; 5 mg/kg PO (10 mg/kg/day)): 490 kg·nM·h/mg
- AUClast/Dose ([5]; 5 mg/kg PO (10 mg/kg/day)): 488 kg·nM·h/mg
- F ([5]; 5 mg/kg PO (10 mg/kg/day)): 34.6%
- Cmax1 ([5]; 5 mg/kg PO (10 mg/kg/day)): 564 nM
- Tmax1 ([5]; 5 mg/kg PO (10 mg/kg/day)): 3-4$ h
- Cmax2 ([5]; 5 mg/kg PO (10 mg/kg/day)): 488 nM
- Tmax2 ([5]; 5 mg/kg PO (10 mg/kg/day)): 13-14$ h
- AUC(0-12 h)/Dose ([5]; 20 mg/kg PO (40 mg/kg/day)): 395 kg·nM·h/mg
- AUC(12-24 h)/Dose ([5]; 20 mg/kg PO (40 mg/kg/day)): 313 kg·nM·h/mg
- AUClast/Dose ([5]; 20 mg/kg PO (40 mg/kg/day)): 318 kg·nM·h/mg
- F ([5]; 20 mg/kg PO (40 mg/kg/day)): 22.6%
- Cmax1 ([5]; 20 mg/kg PO (40 mg/kg/day)): 821 nM
- Tmax1 ([5]; 20 mg/kg PO (40 mg/kg/day)): 1-3$ h
- Cmax2 ([5]; 20 mg/kg PO (40 mg/kg/day)): 1000 nM
- Tmax2 ([5]; 20 mg/kg PO (40 mg/kg/day)): 12.083-16$ h
- AUC ([5]; 5 mg/kg IV (10 mg/kg/day)): 7.38 µM·h
- AUC ([5]; 5 mg/kg PO (10 mg/kg/day)): 2.45 µM·h
- AUC ([5]; 20 mg/kg PO (40 mg/kg/day)): 6.26 µM·h
- AUC(0-t) ([5]; iv, 5 mg/kg, 5 mg/kg IV (10 mg/kg/day), read-out: AUC(0-12 h)): 5.36 µM·h
- AUC(0-t) ([5]; iv, 5 mg/kg, 5 mg/kg IV (10 mg/kg/day), read-out: AUClast): 14.1 µM·h
- AUC(0-t) ([5]; po, 5 mg/kg, 5 mg/kg PO (10 mg/kg/day), read-out: AUC(0-12 h)): 2.44 µM·h
- AUC(0-t) ([5]; po, 5 mg/kg, 5 mg/kg PO (10 mg/kg/day), read-out: AUClast): 4.88 µM·h
- AUC(0-t) ([5]; po, 20 mg/kg, 20 mg/kg PO (40 mg/kg/day), read-out: AUC(0-12 h)): 7.9 µM·h
- AUC(0-t) ([5]; po, 20 mg/kg, 20 mg/kg PO (40 mg/kg/day), read-out: AUClast): 12.7 µM·h
SMILES: CN1CCN(Cc2ccc(-c3cnc(N4CCOC(Cn5nnc6ncc(-c7cnn(C)c7)nc65)C4)nc3)cc2)CC1 (stereo not drawn) [Chemical Formula 1]
